# Assay results taken from EP4567031A1, “HPK1 INHIBITOR, PREPARATION METHOD THEREFOR, AND USE THEREOF” (Beijing Earthwise Technology Co., Ltd., priority 2022, dated 2024).
# Where two headings read alike, the source gives them in different places.
# Columns and labels:
# [1] = target: HPK1 (Homo sapiens, UniProt Q92918); experiment: HPK1 HTRF kinase assay; type: biochemical; conditions: 1000 µM ATP, 50 nM HPK1, STK1 substrate
# Method: The reaction was initiated by adding 50 nM HPK1. After 120 minutes of reaction, the assay was terminated by adding 10 µL of Detection Mix.
# The ratio of the signal at 665 nm to the signal at 615 nm was converted to the percentage of inhibition. Inhibition % = (maximum value - sample value) / (maximum value - minimum value)×100. The minimum value refers to the value measured in a well without enzyme but with DMSO and substrate, and the maximum value refers to the value measured in a well with DMSO, enzyme and substrate. IC50 values were calculated by XLFit (version 5.3.1.3) in Excel. Equation: Y = Bottom + (Top - Bottom) / (1 + (IC50/X) ^ HillSlope).
# [2] = tested on: human Pan T cells; experiment: Human Pan T cell IL-2 ELISA; type: cell-based; conditions: Homo sapiens, T-cell, 48 h, Anti-CD3 and Anti-CD28, supernatant IL-2 ELISA, read-out: IL-2 release, EC50
# Summary of the method: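 Human Pan T cells (1×10^6 cells/ml) stimulated with plate-bound anti-CD3 plus anti-CD28 and treated 48 h with compound at 9 final concentrations, 39.063–10000 nM. Supernatant IL-2 by ELISA, expressed as fold over DMSO wells; EC50 from four-parameter logistic fit.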
# Sequence of HPK1 (Q92918 whole entry, species assumed): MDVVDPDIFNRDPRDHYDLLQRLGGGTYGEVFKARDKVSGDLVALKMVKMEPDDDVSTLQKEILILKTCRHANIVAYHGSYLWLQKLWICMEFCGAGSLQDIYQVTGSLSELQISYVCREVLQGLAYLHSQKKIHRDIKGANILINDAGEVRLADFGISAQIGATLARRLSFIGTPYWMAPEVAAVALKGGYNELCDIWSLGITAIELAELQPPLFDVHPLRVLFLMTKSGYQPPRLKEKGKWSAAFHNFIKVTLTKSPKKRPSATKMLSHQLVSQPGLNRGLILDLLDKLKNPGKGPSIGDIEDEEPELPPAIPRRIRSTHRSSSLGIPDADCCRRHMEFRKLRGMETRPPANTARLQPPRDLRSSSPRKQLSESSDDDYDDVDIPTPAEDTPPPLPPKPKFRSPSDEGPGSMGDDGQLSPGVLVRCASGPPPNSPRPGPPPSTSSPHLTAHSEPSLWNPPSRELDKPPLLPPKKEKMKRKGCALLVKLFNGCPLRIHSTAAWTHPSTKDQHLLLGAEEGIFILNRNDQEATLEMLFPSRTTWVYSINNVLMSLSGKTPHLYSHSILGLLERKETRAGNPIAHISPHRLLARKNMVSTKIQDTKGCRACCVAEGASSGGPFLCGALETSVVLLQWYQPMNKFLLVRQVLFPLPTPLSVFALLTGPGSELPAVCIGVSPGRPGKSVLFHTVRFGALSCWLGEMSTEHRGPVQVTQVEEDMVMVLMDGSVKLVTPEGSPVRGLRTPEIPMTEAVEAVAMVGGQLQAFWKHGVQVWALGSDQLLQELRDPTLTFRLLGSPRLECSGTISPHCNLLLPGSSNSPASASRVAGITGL
EC50 [2] [µM],"IC50 ([1]; read-out: HPK1, IC50) [nM]",Compound,"IC50 ([1]; HPK1, IC50 (nM)) [nM]"
< 0.0015,3.65,CC1(C)c2cc(N3CCOC(C(C)(C)O)C3)ccc2Nc2c1cc(-c1cnc3c(C#N)cccn13)c1c2C(=O)NC1 (stereo not shown) [Example 23],–
0.00183,11.8,COc1ccnn2c(-c3cc4c(c5c3CNC5=O)Nc3ccc(N5CCOC(C(C)(C)O)C5)cc3C4(C)C)cnc12 (stereo not shown) [Example 24],–
0.0149,14.5,CC1(C)c2cc(N3CCOCC3)ncc2Nc2c1cc(-c1cnn3cccnc13)c1c2C(=O)NC1 [Example 26],–
0.00179,11.7,COc1cccc2c(-c3cc4c(c5c3CNC5=O)Nc3cnc(N5CCOCC5)cc3C4(C)C)cnn12 [Example 27],–
0.00241,11.5,CC1(C)c2cc(N3CCOCC3)ccc2Nc2c1cc(-c1cnc3c(C#N)cccn13)c1c2C(=O)NC1 [Example 34],–
0.00633,11.8,CC1(C)c2cc(N3CCOCC3)ccc2Nc2c1cc(-c1cnn3c1CCCC3)c1c2C(=O)NC1 [Example 36],–
0.0047,12.3,Cn1ccc2c(-c3cc4c(c5c3CNC5=O)Nc3ccc(N5CCOCC5)cc3C4(C)C)cncc21 [Example 38],–
0.019,8.71,CN1CCN(Cc2ccc3c(c2)C(C)(C)c2cc(-c4cnn5cccnc45)c4c(c2N3)C(=O)NC4)CC1 [Example 50],–
0.00908,8.2,CC1(C)c2cc(C3COCCN3)ccc2Nc2c1cc(-c1cnn3cccnc13)c1c2C(=O)NC1 (stereo not shown) [Example 52],–
0.00554,7.97,CC1(C)c2cc(N3CCOCC3)ccc2Nc2c1cc(-c1cnn3cnccc13)c1c2C(=O)NC1 [Example 53],–
0.0271,11,CC1(C)c2cc(CN3CCNCC3)ccc2Nc2c1cc(-c1cnn3cccnc13)c1c2C(=O)NC1 [Example 57],–
–,4150,CC1(C)c2cc(-c3cnn4cccnc34)c3c(c2Nc2cccc(OC4CCNC4)c21)C(=O)NC3 (stereo not shown) [Example 58],–
0.00697,7.78,CC1(C)c2cc(N3CCOCC3)c(F)cc2Nc2c1cc(-c1cnn3cccnc13)c1c2C(=O)NC1 [Example 59],–
0.00302,6.08,CC1(C)c2cc(N3CCOCC3)ccc2Nc2c1cc(-c1cnc3cc(F)ccn13)c1c2C(=O)NC1 [Example 62],–
0.00498,5.48,COc1nccn2c(-c3cc4c(c5c3CNC5=O)Nc3ccc(N5CCOCC5)cc3C4(C)C)cnc12 [Example 63],–
0.0144,3.93,Cn1cccc(Nc2cc3c(c4c2CNC4=O)Nc2ccc(N4CCOCC4)cc2C3(C)C)c1=O [Example 67],–
0.0234,12.7,CC1(C)c2cc(N3CCOCC3)ccc2Nc2c1cc(-c1cnn3c1CNCC3)c1c2C(=O)NC1 [Example 70],–
0.0686,11,CC1(C)c2cc(N3CCOCC3)ccc2Nc2c1cc(-c1nnc3n1CCCC3)c1c2C(=O)NC1 [Example 71],–
0.0181,2.13,CC1(C)c2cc(CN3CCN(CC4CC4)CC3)ccc2Nc2c1cc(-c1cnn3cccnc13)c1c2C(=O)NC1 [Example 72],–

# Second part, the compound before the results:
Compound,EC50 [2] [µM],"IC50 ([1]; read-out: HPK1, IC50) [nM]","IC50 ([1]; HPK1, IC50 (nM)) [nM]"
"Cc1ccn2c(-c3cc4c(c5c3CNC5=O)Nc3ccc(N5CCOC(C(C)(C)O)C5)cc3C4(C)C)cnc2c1F (single isomer, unassigned) [Example 88]",0.0123,–,11.6
"Cc1ccn2c(-c3cc4c(c5c3CNC5=O)Nc3ccc(N5CCOC(C(C)(C)O)C5)cc3C4(C)C)cnc2c1F (single isomer, unassigned) [Example 89]",–,–,8.13
"COC1CCCn2c(-c3cc4c(c5c3CNC5=O)Nc3ccc(N5CCOCC5)cc3C4(C)C)cnc21 (single isomer, unassigned) [Example 90]",0.0063,6.72,–
"COC1CCCn2c(-c3cc4c(c5c3CNC5=O)Nc3ccc(N5CCOCC5)cc3C4(C)C)cnc21 (single isomer, unassigned) [Example 91]",–,–,4.24
CC1(C)c2cc(N3CCOC(C(C)(C)O)C3)ccc2Nc2c1cc(-c1cnc3cccnn13)c1c2C(=O)NC1 (stereo not shown) [Example 19],0.00211,6.31,–
CC1(C)c2cc(N3CCOC(C(C)(C)O)C3)ccc2Nc2c1cc(-c1cnn3cccnc13)c1c2C(=O)NC1 (stereo not shown) [Example 22],0.0022,11.2,–
CC1(C)c2cc(N3CCOCC3)cnc2Nc2c1cc(-c1cnn3cccnc13)c1c2C(=O)NC1 [Example 28],0.0959,21.5,–
CC1(C)c2cc(-c3cnn4cccnc34)c3c(c2Nc2ccc(N4CCOCC4)nc21)C(=O)NC3 [Example 29],0.0279,10.1,–
Cn1ccc(-c2cc3c(c4c2CNC4=O)Nc2ccc(N4CCOC(C(C)(C)O)C4)cc2C3(C)C)cc1=O (stereo not shown) [Example 32],0.0123,16.4,–
Cc1ccnn2c(-c3cc4c(c5c3CNC5=O)Nc3ccc(N5CCOC(C(C)(C)O)C5)cc3C4(C)C)cnc12 (stereo not shown) [Example 33],–,11.4,–
CC1(C)c2cc(N3CCOCC3)ccc2Nc2c1cc(-c1cnn3ccncc13)c1c2C(=O)NC1 [Example 35],0.0145,12.8,–
CC1(C)c2cc(N3CCOCC3)ccc2Nc2c1cc(-c1cnn3ccccc13)c1c2C(=O)NC1 [Example 37],0.00227,7.98,–
CC1(C)c2cc(N3CCOCC3)ccc2Nc2c1cc(-c1nnc3c(C#N)cccn13)c1c2C(=O)NC1 [Example 39],0.0168,39,–
Cc1ccn2c(-c3cc4c(c5c3CNC5=O)Nc3ccc(N5CCC(O)CC5)cc3C4(C)C)cnc2c1F [Example 40],0.00507,12.3,–
Cc1ccn2c(-c3cc4c(c5c3CNC5=O)Nc3ccc(N5CCOC(CO)C5)cc3C4(C)C)cnc2c1F (stereo not shown) [Example 46],0.00773,10.3,–
CC1(C)c2cc(CN3CCOCC3)ccc2Nc2c1cc(-c1cnn3cccnc13)c1c2C(=O)NC1 [Example 51],0.0588,11.4,–
Cc1ccnn2c(-c3cc4c(c5c3CNC5=O)Nc3ccc(N5CCOCC5)cc3C4(C)C)cnc12 [Example 54],0.00653,3.81,–
CN1CCN(c2ccc3c(c2)C(C)(C)c2cc(-c4cnn5cccnc45)c4c(c2N3)C(=O)NC4)C(=O)C1 [Example 55],0.0403,7.55,–
CC1(C)c2cc(NC(=O)CC3CC3)ccc2Nc2c1cc(-c1cnn3cccnc13)c1c2C(=O)NC1 [Example 56],0.028,11.5,–
Cc1ccnc2c(-c3cc4c(c5c3CNC5=O)Nc3ccc(N5CCOCC5)cc3C4(C)C)cnn12 [Example 60],0.0179,14.4,–
Cc1cnc2c(-c3cc4c(c5c3CNC5=O)Nc3ccc(N5CCOCC5)cc3C4(C)C)cnn2c1 [Example 61],0.0177,8.55,–
CC1(C)c2cc(N3CCOCC3)ccc2Nc2c1cc(-c1cnc3c(F)cccn13)c1c2C(=O)NC1 [Example 64],0.00351,5.28,–
CC1CCn2c(-c3cc4c(c5c3CNC5=O)Nc3ccc(N5CCOCC5)cc3C4(C)C)cnc2C1 (stereo not shown) [Example 65],0.028,8.59,–
COc1ccnc2c(-c3cc4c(c5c3CNC5=O)Nc3ccc(N5CCOCC5)cc3C4(C)C)cnn12 [Example 66],–,11.1,–
Cn1c(-c2cc3c(c4c2CNC4=O)Nc2ccc(N4CCOCC4)cc2C3(C)C)cnc1C1CC1 [Example 68],0.0211,12,–
COC1CCCn2c(-c3cc4c(c5c3CNC5=O)Nc3ccc(N5CCOCC5)cc3C4(C)C)cnc21 (stereo not shown) [Example 69],0.0114,6.86,–
